{"source": "patent US20180291378A1", "about": "“METHODS AND COMPOSITIONS FOR PROMOTING HAIR GROWTH” (THE TRUSTEES OF COLUMBIA UNIVERSITY IN THE CITY OF NEW YORK, priority 2015, published 2018)", "molecules": {"B1": {"name": "OSM: oncostatin M, secreted cytokine of the IL-6 family; recombinant mouse OSM used at 20 ng/ml (protein, UniProt P53347 25-206, looked up)", "Oncostatin-M": "NRGCSNSSSQLLSQLQNQANLTGNTESLLEPYIRLQNLNTPDLRAACTQHSVAFPSEDTLRQLSKPHFLSTVYTTLDRVLYQLDALRQKFLKTPAFPKLDSARHNILGIRNNVFCMARLLNHSLEIPEPTQTDSGASRSTTTPDVFNTKIGSCGFLWGYHRFMGSVGRVFREWDDGSTRSRR"}}, "key": {"[1]": {"test_system": "C57/B6 mice in telogen", "experiment": "Anagen induction by topical treatment of shaved wildtype mice in telogen", "type": "in vivo, mouse", "conditions": "for days of treatment until treated follicles re-initiate anagen: 7 week old mice, treated for 24 days; for mice displaying skin darkening and hair growth within 10 days of starting treatment: 8.5 week old mice treated for 5 days", "description": "It was hypothesized that inhibition of JAK-STAT signaling promotes entry into the hair cycle in mice. To determine the onset of anagen, backskin hairs were trimmed with an electric shaver, and entry of HF into anagen was observed by the appearance of darkening skin and by hair regrowth. For the hair cycle experiments described in FIG. 1A, biopsies were taken from 2 mice/time point, and the experiment was replicated on 3 sets of littermates. For the experiments described in supp. FIGS. 1C&D, 3-4 mice were used per group (7 week vs. 8.5 week), and the experiment was replicated 3 times. […] The experiment presented in FIG. 1E was independently replicated once, with 3 mice/condition. The experiments described in FIG. 2A, 3 mice/genotype were utilized, and the experiment was replicated in 2 sets of littermates.\nRuxolitinib (INCB018424) was purchased from ChemieTek (catalog number CT-INCB). […] Hedgehog agonist (SAG) was purchased from EMD Millipore (catalog number 566660). JAK-STAT inhibitors were dissolved in DMSO and used at 2-3% for in vivo experiments, as indicated, and 400 nM for in vitro experiments. SAG was used at 120 uM, as described in Paladini et al (2)."}, "[2]": {"test_system": "mouse keratinocytes", "experiment": "Colony forming assay with mouse keratinocytes harvested at telogen", "type": "cell-based"}, "[3]": {"test_system": "OSM-Rβ", "experiment": "OSM-Rβ expression in mouse skin treated in vivo during telogen", "conditions": "whole skin biopsies daily over 5 days of treatment"}, "[4]": {"test_system": "human fetal scalp skin grafts", "experiment": "Human skin grafting assay on SCID mice", "type": "in vivo", "conditions": "daily topical application, 4 weeks", "procedure": "The mice were bandaged, and the grafts were left to recover for 6 weeks. […] Grafts were treated daily with topical application of vehicle control, ruxolitinib or tofacitinib. Treatment continued for 4 weeks, and pictures were taken every 3-5 days. Experiments were performed with skin from 3 separate donors. Quantification of hair growth was performed using ImageJ. Taking advantage of the fact that the donor hair was dark and the grafted mouse was white, the intensity of pigmentation was measured as a proxy for density of HF. Since control and experimental treatments were performed on the same graft, each image allows for the direct comparison between vehicle- and drug-treated skin. Darker regions are given a lower value than bright regions. Ratio was calculated by averaging the intensity values for the control treated side, by the intensity values for drug-treated side, accounting for pre-treatment differences in hair growth on the graft and for changes in hair density occurring over time."}, "[5]": {"test_system": "human DP spheres", "experiment": "Patch assay with dermal papilla spheres", "type": "in vivo", "conditions": "DP spheres treated at 400 nM", "description": "DP cells were grown in spheres as previously described (35). […] Each hanging drop contained 1000 cells, which aggregated to form DP spheroids after 24 hours. 48 hours after plating, 500 spheres in each condition were collected for use in the patch assay. Each experiment was performed with cells derived from a single individual, and four separate experiments were conducted. Keratinocytes were isolated from new born mice following the protocol outlined by Lichti et al (63). Cells were cultured in dkSFM for 2-4 days prior to being harvested for the patch assay. 1×10^6 newborn murine keratinocytes were then mixed together with 500 human DP spheres in each condition, and injected subdermally into dorsal skin of a nude mouse. 12 days after performing the injections, cysts had developed in the dermis, some which contained HF and hair fibers. These cysts were collected, photographed and then digested in 0.35% collagenase. The digested slurries were spread onto microscope slides and hair fiber counts were manually performed under a stereo microscope."}, "[6]": {"test_system": "STAT3 and STAT5", "experiment": "STAT3 and STAT5 activation in whole skin treated in vivo", "design": "species or system mouse"}, "[7]": {"test_system": "STAT1, STAT3 and STAT5", "experiment": "OSM-induced STAT activation in cultured keratinocytes", "type": "cell-based, mouse"}, "[8]": {"test_system": "human adult scalp hair follicles", "experiment": "Human hair follicle organ culture assay", "type": "cell-based", "description": "Adult human follicles were microdissected from occipital skin under sterile conditions as previously described.\nMedia was replaced every 2 days, and images of individual follicles were taken every 2 days. Analysis of the growth rate of each follicle was performed using Image J."}, "[9]": {"test_system": "whole skin gene expression", "experiment": "Whole skin microarray / IPA pathway analysis after 4 days of treatment", "type": "in vivo, mouse", "conditions": "8.5-week-old mice", "description": "Gene expression profiling was performed on whole skin biopsies from 12 B6/C57 female mice, 8.5 weeks of age. Biopsies were taken from dorsal skin at day 0 (T0) of the experiment. […] Quality control was performed using the affy analysisQC package from http://arrayanalysis.org/. […] Data were normalized using the GCRMA method as implemented in affyAnalysisQC. LIMMA was used with a multilevel model to identify genes that were differentially expressed between samples at T5 and T0 for each treatment group (DMSO, RUXO, and TOFA) using a threshold of fold change=1.5 and P<0.05.\nTotal RNA was extracted using the Qiagen RNAeasy micro kit. The Ovation RNA Amplification kit (Nugen) was used to generate amplified cDNA for microarray analysis. Arrays used were Affymetrix mouse 430 2.0, hybridized at the CUMC microarray facility. qPCR analysis was performed on the ABI 7300 cycler. Primers sequences available in Table 2."}, "[10]": {"test_system": "hair germ compartment (P-cad+)", "experiment": "Hair germ proliferation (Ki67 / EdU) in treated mouse skin", "type": "in vivo", "procedure": "C57/B6 mice at 8.5 weeks of age were treated on half of the dorsal back with either topical vehicle control (left side) or JAK inhibitors (right side). Four hours post treatment each mouse received a single injection of 20 mg/kg 5-ethynyl-2′-deoxyuridine (EdU) (Invitrogen). One hour after injection, skin was harvested, fixed and stained using the Click-iT EdU Alexa Fluor 488 Imaging Kit (Life Technologies) per manufacturer's instructions, and co-stained for P-cadherin. Experiment was replicated once, with 1 mouse/time point."}, "[11]": {"test_system": "human DP spheres gene expression", "experiment": "DP spheres microarray / GEDI / gene set enrichment analysis", "type": "cell-based", "description": "For the DP spheres microarray analysis, cells were prepared from three different donors, and Affymetrix human HG-U133 PLUS 2.0 arrays were hybridized at the CUMC genomics facility. Quality control and data normalization was performed as described above. For the organ culture experiment, 3 sets of repeats were performed, each times using HF derived from a single individual.\nFor the DP spheres microarray analysis, total RNA was extracted from DP spheres cultured in DMSO, ruxolitinib or tofacitinib from each of the three donors using the Qiagen RNAeasy micro kit. The Ovation RNA Amplification kit (Nugen) was used to generate amplified cDNA for microarray analysis. LIMMA was used with a linear model treating both treatment and the blocking factor, donor, as fixed effects. Contrasts of interest between treatments were used to identify genes that were differentially expressed between pairs of treatments for the treatments DMSO, RUXO, and TOFA. A threshold of absolute fold change=1.5 and P<0.05 was employed. For GSEA, the HG_U133_Plus_2.0 chip annotation file downloaded from ftp.broad.mit.edullpub/gsedannotations/was used to annotate the Affymetrix ProbeSets and to remove duplicate ProbeSets for a given Gene Symbol. Duplicates were removed based on the maximum absolute fold-change observed for each Gene Symbol. Pre-ranked gene lists were generated for each treatment contrast of interest, using the moderated t-statistics returned by LIMMA. GSEA was performed on these lists to identify KEGG pathways overrepresented in each list (ES p-value 0.01).\nThe gene set enrichment analysis comparing tofacitinib-treated and control cells was performed by generating a list of all detected transcripts ranked by differential expression (p-value), and direction of fold change (up or down). This ranked list was tested for enrichment of the union of territories 2 and 4 (gene list provided in Table 3) as described previously (35). A null distribution for computing the normalized enrichment score (NES) and its associated p-value was obtained by label shuffling to randomize the gene rankings. These randomized sets were then used to compute null enrichment scores over 5000 iterations to generate a null distribution. The observed leading edge enrichment score was normalized to this distribution and a 2-tailed p-value was generated for this NES."}, "[12]": {"test_system": "OSM-Rβ", "experiment": "OSM-Rβ expression in cultured mouse keratinocytes", "type": "cell-based", "conditions": "recombinant mouse OSM at 20 ng/ml"}}}
{"molecule": "N#CC[C@H](C1CCCC1)n1cc(-c2ncnc3[nH]ccc23)cn1", "note": "[ruxolitinib]", "values": [{"measurement": "days of treatment until treated follicles re-initiate anagen", "setting": "[1]", "result": "≤ 18", "unit": "days"}, {"measurement": "mice displaying skin darkening and hair growth within 10 days of starting treatment", "setting": "[1]", "result": "~90", "unit": "%"}]}
{"molecule": "C[C@@H]1CCN(C(=O)CC#N)C[C@@H]1N(C)c1ncnc2[nH]ccc12", "note": "[tofacitinib]", "values": [{"measurement": "effect on OSM growth inhibition", "setting": "[2]; added to OSM", "result": "reversed partially"}, {"measurement": "number of keratinocyte colonies", "setting": "[2]; drug alone", "result": "increase the number of keratinocyte colonies"}, {"measurement": "OSM-Rβ expression, qRT-PCR", "setting": "[3]", "result": "Downregulation"}, {"measurement": "days of treatment until treated follicles re-initiate anagen", "setting": "[1]", "result": "≤ 21", "unit": "days"}, {"measurement": "mice displaying skin darkening and hair growth within 10 days of starting treatment", "setting": "[1]", "result": "~90", "unit": "%"}, {"measurement": "re-entry into the hair cycle", "setting": "[1]; topical, half of dorsal back, treated three weeks", "result": "rapid re-entry into the hair cycle, with kinetics similar to the Shh agonist"}, {"measurement": "HF growth on graft compared to controls", "setting": "[4]", "result": "denser HF growth"}, {"measurement": "inductivity of DP spheres", "setting": "[5]", "result": "did enhance inductivity"}, {"measurement": "size and numbers of HFs induced", "setting": "[5]; with neonatal mouse keratinocytes in nude mice", "result": "larger and significantly greater numbers of HFs"}, {"measurement": "STAT3 and STAT5 activation", "setting": "[6]", "result": "effective inhibition"}, {"measurement": "effect on OSM-induced STAT1, STAT3 and STAT5 activation", "setting": "[7]; in vitro cultured keratinocytes", "result": "efficiently abrogated"}, {"measurement": "length of hair shafts / rate of hair elongation", "setting": "[8]; 400 nM, follicles from a single donor", "result": "significantly increased length of hair shafts"}, {"measurement": "growth rate of anagen, repeat experiment", "setting": "[8]; follicles from two individuals, did not reach statistical significance", "result": "increased the growth rate of anagen"}, {"measurement": "expression of hair cycle regulators Shh and Prom1", "setting": "[9]; T5 vs T0", "result": "significantly upregulated"}, {"measurement": "pathways enriched by only one of the drug treatments", "setting": "[9]; T5 vs T0", "result": "pathways involved in cell motility and migration, such as Rho and integrin signaling"}, {"measurement": "pathways enriched in both drug treatments (IPA)", "setting": "[9]; T5 vs T0, not in vehicle", "result": "melanogenesis and the Wnt pathway were enriched"}, {"measurement": "Edu+ cells within the hair germ (P-cadherin+) compartment", "setting": "[10]; after three treatments, skin harvested 5 hours after treatment", "result": "clearly visible"}, {"measurement": "proliferation within the hair germ compartment (P-cad+)", "setting": "[10]; mice in telogen treated 4 days", "result": "Significant proliferation"}, {"measurement": "expression of LEF1, WIF1 and CD133", "setting": "[11]", "result": "upregulate"}, {"measurement": "expression of TGβ2, BMP6 and LEF1", "setting": "[11]", "result": "upregulated"}, {"measurement": "gene set enrichment of territory T4", "setting": "[11]; treated vs untreated spheres", "result": "significantly enriched"}, {"measurement": "gene set enrichment of territory T2", "setting": "[11]; treated vs untreated spheres, overlap only marginally significant", "result": "enriched"}, {"measurement": "expression of FGFR1, ACVRL1, IGFR1, OSMR and PTGFR (region 1)", "setting": "[11]; vs control", "result": "repressed in both treatments but lower in tofacitinib treatment"}, {"measurement": "expression of members of the TGFβ pathway and the BMP pathway (regions 3 and 4)", "setting": "[11]; vs control", "result": "upregulated"}, {"measurement": "expression of pro-apoptotic genes BAX, BCL2L11 and CASP12 (region 2)", "setting": "[11]; vs control", "result": "downregulated"}, {"measurement": "key regulators of the WNT pathway (LEF1) and members of the NOTCH pathway", "setting": "[11]; vs control", "result": "overrepresented"}]}
{"molecule": "B1", "values": [{"measurement": "effect on keratinocyte colony growth", "setting": "[2]; OSM alone", "result": "growth inhibitory effect"}, {"measurement": "activation of STAT1, STAT3 and STAT5 transcription factors", "setting": "[7]; within 10 minutes of OSM treatment", "result": "activated"}, {"measurement": "expression of OSM-Rβ", "setting": "[12]", "result": "upregulated"}]}
